{
  "source": "paper PMC2847825",
  "about": "(Biological chemistry, 2009)",
  "target": "T1, phenylalanine hydroxylase (Rattus norvegicus, UniProt P04176)",
  "T1 sequence (P04176 2-453)": "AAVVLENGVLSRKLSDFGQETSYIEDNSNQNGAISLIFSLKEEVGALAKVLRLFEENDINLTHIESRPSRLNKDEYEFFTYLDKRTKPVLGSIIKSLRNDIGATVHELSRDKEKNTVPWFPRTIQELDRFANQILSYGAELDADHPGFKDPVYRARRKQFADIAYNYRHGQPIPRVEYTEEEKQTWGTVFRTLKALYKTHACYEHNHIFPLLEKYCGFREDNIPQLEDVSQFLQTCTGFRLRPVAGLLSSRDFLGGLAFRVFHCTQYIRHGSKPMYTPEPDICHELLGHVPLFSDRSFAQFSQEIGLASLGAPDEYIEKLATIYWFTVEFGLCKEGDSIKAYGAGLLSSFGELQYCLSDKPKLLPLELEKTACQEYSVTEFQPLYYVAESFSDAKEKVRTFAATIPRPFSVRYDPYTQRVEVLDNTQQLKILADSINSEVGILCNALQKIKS",
  "experiment": "recombinant enzyme activity, HPLC detection of tyrosine",
  "format": "biochemical",
  "data": [
    {"compound": "c1cnc2c(c1)ccc1cccnc12", "note": "[1,10-phenanthroline]", "values": [
      {"measurement": "recombinant enzyme activity, HPLC detection of tyrosine", "result": 0.01, "unit": "mM"}
    ]}
  ]
}
